The target in one experiment is human TLR8 (Homo sapiens (Human), UniProt Q9NR97). Briefly: TLR8 inhibition reporter assay (HEK-Blue SEAP reporter, R848 stimulation).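 Also: SEAP driven by IFN-β minimal promoter with NF-κB and AP-1 sites, 22 h incubation, compounds 0.05 nM–50 µM, inhibition scaled between agonist plus DMSO and reference inhibitor wells.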 Particulars: read-out: TLR8 IC50; HEK-Blue cells overexpressing human TLR8, R848 15.9 μM, SEAP reporter.
For another experiment, the target named is human TLR7 (Homo sapiens (Human), UniProt Q9NYK1). Briefly: TLR7 inhibition reporter assay (HEK-Blue SEAP reporter, gardiquimod stimulation). Type of experiment: cell-based. The note with it: HEK-Blue cells overexpressing human TLR7, gardiquimod 7.5 μM. Background: Reporter assays use an easily measured gene product as a stand-in for the process of interest.

In a further experiment the target is human TLR9 (Homo sapiens (Human), UniProt Q9NR96). Briefly: TLR9 inhibition reporter assay (HEK-Blue SEAP reporter, ODN2006 stimulation).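 Also: SEAP reporter under IFN-β minimal promoter with five NF-κB and AP-1 sites, 22 h incubation, compounds 0.05 nM–50 µM, inhibition relative to agonist plus DMSO versus known inhibitor.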 The note with it: read-out: TLR9 IC50; HEK-Blue cells overexpressing human TLR9, ODN2006 5 nM, SEAP reporter.

A word on the IC50: it is the concentration at which inhibition is half-maximal.

human TLR7, sequence (Q9NYK1 27-1049): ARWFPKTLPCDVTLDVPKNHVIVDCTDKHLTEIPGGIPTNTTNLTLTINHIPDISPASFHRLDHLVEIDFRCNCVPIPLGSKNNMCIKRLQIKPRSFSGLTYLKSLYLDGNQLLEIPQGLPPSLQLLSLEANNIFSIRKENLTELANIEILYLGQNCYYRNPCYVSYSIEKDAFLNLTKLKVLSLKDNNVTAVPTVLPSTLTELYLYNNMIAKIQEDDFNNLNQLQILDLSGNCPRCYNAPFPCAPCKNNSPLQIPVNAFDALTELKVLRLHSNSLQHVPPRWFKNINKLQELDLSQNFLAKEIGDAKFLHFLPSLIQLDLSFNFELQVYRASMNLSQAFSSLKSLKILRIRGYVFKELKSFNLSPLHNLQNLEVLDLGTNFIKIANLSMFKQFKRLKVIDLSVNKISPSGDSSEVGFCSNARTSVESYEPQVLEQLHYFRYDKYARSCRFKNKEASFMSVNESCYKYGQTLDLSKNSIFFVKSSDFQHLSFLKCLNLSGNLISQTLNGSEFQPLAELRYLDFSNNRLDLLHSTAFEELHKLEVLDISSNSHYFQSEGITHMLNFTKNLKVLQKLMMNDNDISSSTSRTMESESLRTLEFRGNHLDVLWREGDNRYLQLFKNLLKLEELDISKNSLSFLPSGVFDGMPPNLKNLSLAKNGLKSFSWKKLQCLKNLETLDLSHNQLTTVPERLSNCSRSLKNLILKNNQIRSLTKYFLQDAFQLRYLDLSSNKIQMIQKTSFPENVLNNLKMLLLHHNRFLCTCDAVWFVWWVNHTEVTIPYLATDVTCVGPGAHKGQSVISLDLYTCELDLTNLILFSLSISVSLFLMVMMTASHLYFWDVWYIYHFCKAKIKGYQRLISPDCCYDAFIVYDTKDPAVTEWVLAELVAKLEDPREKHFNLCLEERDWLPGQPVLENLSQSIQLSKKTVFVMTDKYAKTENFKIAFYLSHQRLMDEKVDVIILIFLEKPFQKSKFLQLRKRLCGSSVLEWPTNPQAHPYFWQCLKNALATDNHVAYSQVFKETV
human TLR9, sequence (Q9NR96 26-1032): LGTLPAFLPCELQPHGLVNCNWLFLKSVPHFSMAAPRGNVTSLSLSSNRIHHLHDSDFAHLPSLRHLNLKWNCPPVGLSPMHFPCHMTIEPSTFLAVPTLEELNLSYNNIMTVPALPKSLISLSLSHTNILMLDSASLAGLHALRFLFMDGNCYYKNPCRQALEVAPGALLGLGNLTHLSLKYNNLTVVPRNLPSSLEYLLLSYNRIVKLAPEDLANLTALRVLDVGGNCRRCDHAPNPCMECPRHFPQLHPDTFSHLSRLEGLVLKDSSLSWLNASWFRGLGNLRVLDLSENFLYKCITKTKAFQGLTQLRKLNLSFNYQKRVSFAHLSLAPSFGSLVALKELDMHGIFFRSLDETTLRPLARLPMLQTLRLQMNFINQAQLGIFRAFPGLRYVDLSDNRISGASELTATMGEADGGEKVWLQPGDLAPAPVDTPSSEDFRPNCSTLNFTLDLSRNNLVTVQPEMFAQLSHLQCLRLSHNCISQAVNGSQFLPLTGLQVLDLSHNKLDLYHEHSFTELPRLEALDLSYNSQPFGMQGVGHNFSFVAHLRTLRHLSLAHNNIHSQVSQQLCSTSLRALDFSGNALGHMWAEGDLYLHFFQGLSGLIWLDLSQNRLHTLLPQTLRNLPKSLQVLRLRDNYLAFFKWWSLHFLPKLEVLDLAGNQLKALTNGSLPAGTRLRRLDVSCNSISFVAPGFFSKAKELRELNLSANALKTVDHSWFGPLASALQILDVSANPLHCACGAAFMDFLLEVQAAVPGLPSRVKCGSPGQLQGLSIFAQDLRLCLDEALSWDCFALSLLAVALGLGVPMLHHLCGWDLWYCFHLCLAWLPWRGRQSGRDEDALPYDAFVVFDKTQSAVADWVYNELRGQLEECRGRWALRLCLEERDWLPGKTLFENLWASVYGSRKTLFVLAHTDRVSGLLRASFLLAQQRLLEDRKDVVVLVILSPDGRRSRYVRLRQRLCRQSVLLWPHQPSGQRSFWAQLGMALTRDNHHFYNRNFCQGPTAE
human TLR8, sequence (Q9NR97 27-1041): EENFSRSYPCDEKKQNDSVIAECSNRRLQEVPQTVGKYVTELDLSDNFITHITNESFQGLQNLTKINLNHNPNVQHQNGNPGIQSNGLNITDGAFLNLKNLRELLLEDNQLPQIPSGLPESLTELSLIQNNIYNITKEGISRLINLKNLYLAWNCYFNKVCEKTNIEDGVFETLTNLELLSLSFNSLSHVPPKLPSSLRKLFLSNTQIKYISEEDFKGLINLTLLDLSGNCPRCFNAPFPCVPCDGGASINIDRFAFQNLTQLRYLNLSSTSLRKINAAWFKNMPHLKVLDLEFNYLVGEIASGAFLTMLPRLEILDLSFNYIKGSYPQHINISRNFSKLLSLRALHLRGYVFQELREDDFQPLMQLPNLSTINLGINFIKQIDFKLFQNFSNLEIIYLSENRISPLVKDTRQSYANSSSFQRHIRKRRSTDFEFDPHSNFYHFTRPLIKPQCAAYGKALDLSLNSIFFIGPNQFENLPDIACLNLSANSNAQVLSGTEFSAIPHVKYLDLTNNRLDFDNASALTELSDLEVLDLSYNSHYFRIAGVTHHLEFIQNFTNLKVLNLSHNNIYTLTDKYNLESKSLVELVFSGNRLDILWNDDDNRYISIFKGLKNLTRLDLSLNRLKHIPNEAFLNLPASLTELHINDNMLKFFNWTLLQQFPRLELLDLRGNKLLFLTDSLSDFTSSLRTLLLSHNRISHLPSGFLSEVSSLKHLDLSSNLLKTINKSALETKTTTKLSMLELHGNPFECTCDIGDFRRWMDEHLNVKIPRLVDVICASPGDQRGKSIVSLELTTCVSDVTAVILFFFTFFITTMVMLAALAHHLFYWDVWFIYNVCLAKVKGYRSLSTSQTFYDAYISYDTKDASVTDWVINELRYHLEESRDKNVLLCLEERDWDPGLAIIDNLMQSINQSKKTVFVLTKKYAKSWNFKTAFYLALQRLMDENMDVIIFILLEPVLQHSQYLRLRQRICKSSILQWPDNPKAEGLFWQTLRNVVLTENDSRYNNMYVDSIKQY
Procedure for human TLR7: (§1) HEK-Blue™-cells (Invivogen) overexpressing human TLR7, TLR8 or TLR9 receptors were used for screening inhibitors of these receptors using an inducible SEAP (secreted embryonic alkaline phosphatase) reporter gene under the control of the IFN-β minimal promoter fused to five NF-κB and AP-1-binding sites. Briefly, cells are seeded into Greiner 384 well plates (15000 cells per well for TLR7, 20,000 for TLR8 and 25,000 for TLR9) and then treated with test compounds in DMSO to yield a final dose response concentration range of 0.05 nM-50 μM. After a 30 minute compound pre-treatment at room temperature, the cells are then stimulated with a TLR7 ligand (gardiquimod at a final concentration of 7.5 μM), TLR8 ligand (R848 at a final concentration of 15.9 μM) or TLR9 ligand (ODN2006 at a final concentration of 5 nM) to activate NF-κB and AP-1 which induce the production of SEAP. After a 22 hour incubation at 37° C., 5% CO2, SEAP levels are determined with the addition of HEK-Blue™ Detection reagent (Invivogen), a cell culture medium that allows for detection of SEAP, according to manufacturer's specifications.
Procedure for human TLR8: as §1

Take `CCc1c(-c2ccc(OC)c(OC)c2)[nH]c2ccc(C(=O)NCC(C)(C)CO)cc12` [Example 72, 2-(3,4-dimethoxyphenyl)-3-ethyl-N-(3-hydroxy-2,2-dimethylpropyl)-1H-indole-5-carboxamide]: the IC50 on human TLR8 was 408 nM; against human TLR7 it was 579 nM; at human TLR9, over 50000 nM.

`CCc1c(-c2ccc(OC)c(OC)c2)[nH]c2ccc(C(=O)N(CC)CCN(C)C)cc12` [Example 73, 2-(3,4-dimethoxyphenyl)-N-(2-(dimethylamino)ethyl)-N,3-diethyl-1H-indole-5-carboxamide]: the IC50 was 4 nM on human TLR8, 25 nM against human TLR7 and 4340 nM at human TLR9.

On to `CCc1c(-c2ccc(OC)c(OC)c2)[nH]c2ccc(C(=O)N(C)CCCN(C)C)cc12` [Example 74, 2-(3,4-dimethoxyphenyl)-N-(3-(dimethylamino)propyl)-3-ethyl-N-methyl-1H-indole-5-carboxamide], for which the IC50 was determined as 16 nM at human TLR8, 156 nM on human TLR7 and 5880 nM on human TLR9.

For the molecule `CCc1c(-c2ccc(OC)c(OC)c2)[nH]c2ccc(C(=O)NCCCN(C)C)cc12` [Example 75, 2-(3,4-dimethoxyphenyl)-N-(3-(dimethylamino)propyl)-3-ethyl-1H-indole-5-carboxamide], the values for the IC50 on human TLR8, at human TLR7 and at human TLR9 were 7.6 nM, 124 nM and 250 nM, respectively.

Turning to `CCc1c(-c2ccc(OC)c(OC)c2)[nH]c2ccc(C(=O)N(C)CCN(C)C)cc12` [Example 76, 2-(3,4-dimethoxyphenyl)-N-(2-(dimethylamino)ethyl)-3-ethyl-N-methyl-1H-indole-5-carboxamide], the IC50 is 3.9 nM at human TLR8, 56 nM on human TLR7 and 4890 nM on human TLR9.

Turning to `CCc1c(-c2ccc(OC)c(OC)c2)[nH]c2ccc(C(=O)N(CCOC)CCOC)cc12` [Example 77, 2-(3,4-dimethoxyphenyl)-3-ethyl-N,N-bis(2-methoxyethyl)-1H-indole-5-carboxamide], the values for the IC50 at human TLR8, against human TLR7 and on human TLR9 were 480 nM, 714 nM and 40300 nM, respectively.

Consider `CCc1c(-c2ccc(OC)c(OC)c2)[nH]c2ccc(C(=O)N3CC4CNCC4C3)cc12` (stereo not drawn) [Example 79, (2-(3,4-dimethoxyphenyl)-3-ethyl-1H-indol-5-yl)(hexahydropyrrolo[3,4-c]pyrrol-2(1H)-yl)methanone], for which the IC50 on human TLR8 was 124 nM; against human TLR7, 296 nM; at human TLR9, 1050 nM.

As to `CCc1c(-c2ccc(OC)c(OC)c2)[nH]c2ccc(C(=O)N3CCN(C4CCN(C(C)C)CC4)CC3)cc12` [Example 80, (2-(3,4-dimethoxyphenyl)-3-ethyl-1H-indol-5-yl)(4-(I-isopropylpiperidin-4-yl)piperazin-1-yl) methanone], the IC50 amounted to 2.9 nM on human TLR8, 177 nM on human TLR7 and 836 nM on human TLR9.

Regarding `CCc1c(-c2ccc(OC)c(OC)c2)[nH]c2ccc(C(=O)N3CC4CN(C(C)C)CC4C3)cc12` (stereo not drawn) [Example 81, (2-(3,4-dimethoxyphenyl)-3-ethyl-1H-indol-5-yl)(5-isopropylhexahydropyrrolo[3,4-c]pyrrol-2(1H)-yl)methanone], the values for the IC50 on human TLR8, on human TLR7 and at human TLR9 were 87 nM, 418 nM and 1920 nM, respectively.

For the molecule `CCc1c(-c2ccc(OC)c(OC)c2)[nH]c2ccc(C(=O)N3CC4CN(CC(=O)NC)CC4C3)cc12` (stereo not drawn) [Example 82, 2-(5-(2-(3,4-dimethoxyphenyl)-3-ethyl-1H-indole-5-carbonyl)hexahydropyrrolo[3,4-c]pyrrol-2(1H)-yl)-N-methylacetamide], the values for the IC50 at human TLR8, against human TLR7 and on human TLR9 were 446 nM, 515 nM and 21900 nM, respectively.

With `CCc1c(-c2ccnc3[nH]ccc23)[nH]c2ccc(C(=O)N(CC)CCN(C)C)cc12` [Example 83, N-(2-(dimethylamino)ethyl)-N,3-diethyl-2-(1H-pyrrolo[2,3-b]pyridin-4-yl)-1H-indole-5-carboxamide], the values for the IC50 on human TLR8, at human TLR7 and on human TLR9 were 0.5 nM, 16 nM and 2350 nM, respectively.
